Assay [1] relates to U87 cells. Description: MTT viability with inhibitors of phagosome formation plus G-TPP. In kind it is cell-based, human. The conditions noted are these: inhibitor 1 hour then G-TPP, MTT after 16 hours. On the procedure:
FIG. 11A is a graph of the percent viability of U87 cells following incubation with inhibitors of phagosome formation, bafilomycin A (BF) or 3-methyladenine (3-MA), for 1 hour and treatment with G-TPP. MTT analysis was performed after 16 hours with MTT. The mean data±standard deviation are shown.
(§1) For autophagy, glioblastoma cells were transfected with an LC3-GFP cDNA by FuGENE HD (Roche), treated with vehicle, nontargeted 17-AAG, or G-TPP, and analyzed by fluorescence microscopy. […] An average of 200 cells was counted in 4-6 independent fields per condition. In some experiments, G-TPP-treated cells were incubated with pharmacologic inhibitors of autophagy, BF, or 3-MA, and analyzed after 16 hours for modulation of cell viability by MTT.

Assay [2] concerns FLIP promoter in U251 cells. In words: FLIP luciferase promoter activity. In kind it is cell-based, human. On the procedure:
FIG. 13A is a graph showing the RLU of U251 cells from luciferase produced from a FLIP promoter following no treatment or treatment with two different concentrations of G-TPP. The luciferase data are normalized to β-galactosidase. The mean data±standard deviation are shown.
(§2) FIG. 14B is a graph showing the RLU of U251 cells from luciferase produced from a NF-κB or cFLIP promoter following treatment with non-targeted 17-AAG. Cells were analyzed after 9 hours for luciferase activity. The mean data±SEM of replicates of a representative experiment are shown.
(§3) Tumor cell types were transfected with NF-κB (Mehrota et al., Cancer Cell 17:53-64, 2010), p53, or FLIP luciferase promoter construct (pGL3-FLIP1500; Addgene #16016) using FuGENE HD. After 24 hours at 37° C., cells were stimulated with G-TPP or 17-AAG (0-10 μM) for 6 hours, harvested, and analyzed for β-galactosidase-normalized luciferase activity in a luminometer, as described (Mehrota et al., Cancer Cell 17:53-64, 2010). In some experiments, β-galactosidase-normalized NF-κB promoter activity was examined after cell stimulation with TNF-α, as described (Mehrota et al., Cancer Cell 17:53-64, 2010).

In assay [3] the test system is RelB, Bcl-3 mRNA in LN229 cells. Description: RelB and Bcl-3 mRNA expression. In kind it is cell-based, human. The source says: FIG. 13C is a Northern blot showing the PCR-amplified expression of RelB, Bcl-3, and GAPDH mRNA in LN229 cells following treatment with G-TPP.
Assay [4] has as its system U251 cells. Description: Annexin V / propidium iodide flow cytometry. In kind it is cell-based, human. The settings on record: 5 μM TPP-GA, 25 ng/ml TRAIL, alone or combined. Background: In flow cytometry, cells or beads pass a laser one at a time.
The test system of another assay is FLIP in LN229 cells. In words: FLIP protein immunoblot. In kind it is cell-based, human. On the procedure: FIG. 13B is two immunoblots lysate from LN229 cells following treatment with G-TPP. The top immunoblot is a dose response experiment. The bottom immunoblot is a time-course experiment. FLIP (L) is the FLIP long form. FLIP(S) is the FLIP short form.
(§4) The various cell types were seeded in triplicate onto 96-well plates at 2×10^3 cells/well, treated with vehicle, G-TPP, or nontargeted 17-AAG (0-20 μM) for up to 24 hours, and quantified for metabolic activity by a 3(4,5-dimethyl-thyazoyl-2-yl)2,5 diphenyltetrazolium bromide (MTT) colorimetric assay with absorbance at 405 nm, as described in Plescia et al. (Cancer Cell 7:457-468, 2005). Changes in protein expression under the various combination regimens were determined by immunoblotting.
On the technique in general: Immunoblotting shows a protein as a band on a membrane.

Assay [5] has as its system U87-luc glioblastoma cells. Description: Orthotopic glioblastoma tumor model, bioluminescence imaging. In kind it is in vivo. The settings on record: CB17 SCID/beige mice; TRAIL 2 μg intracranially, TPP intraperitoneally. On the procedure: Since Gamitrinib-TPP dramatically sensitizes cancer cells in vitro it was of highest interest to assess efficacy in vivo. To this end, efficacy of TRAIL, TPP, or the combination of both was determined in an orthotopic glioblastoma tumor model. Twenty nude mice were intracranially injected with U87-luc glioblastoma cells. U87 glioblastoma cells stably transfected with a luciferase expression plasmid (U87-Luc) were suspended in sterile PBS, pH 7.2, and stereotactically implanted (1×10^5) in the right cerebral striatum of immunocompromised CB17 SCID/beige female mice (Charles River Laboratories). Treatment group 1 received only vehicle solutions. Group 2 received TRAIL intracranially (2 μg) and carrier solution intraperitoneally. Group 3 received PBS intracranially and TPP intraperitoneally in a carrier solution consisting of 20% Cremophor in PBS. Group 4 received both TRAIL and TPP. Tumor growth was assessed after each intracranial injection by application of 58 mg/kg D-luciferin and subsequent bioluminescence imaging using a Xenogen In Vivo Imaging System. […]
Five days after injection of U87-luc glioblastoma cells, the mice were scanned, quantified and according to signal strength randomized into 4 treatment groups (Group 1: Vehicle, Group 2: TRAIL, Group 3: TPP, Group 4: TRAIL+TPP) (FIGS. 5A, 6A).

The subject of assay [6] is U251 cells. Description: LC3-GFP fluorescence microscopy (autophagy). In kind it is cell-based, human. The settings on record: 16 hours. Here is the method:
FIG. 10B is a fluorescence photomicrograph and a graph of the percentage of fluorescent U251 cells following transfection of U251 cells with LC3-GFP and treatment for 16 hours with vehicle (left photomicrograph) or G-TPP (right photomicrograph).
as §1

Assay [7] relates to NF-κB promoter in U251 cells. Description: NF-κB luciferase promoter activity. The conditions noted are these: U251, luciferase normalized to β-galactosidase. In kind it is cell-based, human. On the procedure: FIG. 12A is a graph showing the relative light units (RLU) of U251 cells from luciferase produced from a NF-κB promoter following no treatment or treatment with G-TPP or TRAIL. The luciferase data are normalized to β-galactosidase. TRAIL (800 ng/mL) was used as a control. The mean data±standard deviation are shown.
FIG. 12B is a graph showing the RLU of U251 cells from luciferase produced from a NF-κB promoter following no treatment or treatment with G-TPP in the presence or absence of TNF-α. The luciferase data are normalized to β-galactosidase. The mean data±standard deviation are shown.
as §2, §3

The subject of assay [8] is U87 cells. In words: LC3 immunoblot (autophagy). The settings on record: over time. In kind it is cell-based, human. On the procedure:
FIG. 10A is an immunoblot of lysates from U87 cells following treatment with G-TPP for the indicated periods of time. The position of the unmodified (I) and lipidated form (II) form of LC3 are indicated.
as §4

Assay [9] concerns p53 promoter in MCF-7 cells. In words: p53 luciferase promoter activity. In kind it is cell-based, human. The settings on record: MCF-7, after 5 hours. On the procedure: FIG. 14A is a graph showing the RLU of MCF-7 cells from luciferase produced from a p53 promoter following no treatment or treatment with G-TPP, Eto 10, Eto 10 and G-TPP, Eto 20, and Eto 20 and G-TPP. Cells were analyzed after 5 hours for β-galactosidase-normalized p53 luciferase promoter activity.
as §3

In assay [10] the test system is LN229 cells. Description: Electron microscopy of treated cells. The conditions noted are these: 5-10 μM, 16 hours. In kind it is cell-based, human. Here is the method: Subconfluent monolayers of LN229 cells were incubated with PBS, pH 7.2, or G-TPP or nontargeted 17-AAG (5-10 μM) for 16 hours at 37° C. Cells were washed briefly in 0.1 M PBS, pH 7.4, fixed in buffered 2.5% glutaraldehyde (GA) with or without 4% formaldehyde (FA) or for 30 minutes at 22° C., post-fixed in 1% osmium tetroxide, and processed by standard methods for epoxy embedding. In some experiments, cells were fixed in buffered 3% FA with 0.1% GA for 25 minutes at 22° C., washed, quenched with NH4Cl, and dehydrated for embedding in LR White resin. Ultrathin sections on nickel grids were treated for heat-induced antigen retrieval and blocked with buffered 1% BSA, as described in published protocols (Yamashita et al., Methods Mol. Biol. 657:237-248, 2010). Samples were incubated with an antibody to COX IV, followed by a colloidal gold-conjugated (12 nm) secondary antibody of appropriate specificity (Jackson ImmunoResearch). Grids were briefly post-fixed with 2% GA, washed, air dried, and then exposed to osmium tetroxide vapors for 20 minutes. Ultrathin sections were stained with uranyl acetate and lead citrate before examination in a Philips CM10 transmission electron microscope.

Assay [11] has as its system U251 cells. Description: Western blotting of caspase, BID and PARP cleavage. In kind it is cell-based, human. The conditions noted are these: 5 μM TPP-GA, 20 ng/ml TRAIL, alone or combined, 16 hours. On the procedure:
(§5) Western blotting was employed to elucidate the proteolytic mechanism in TRAIL and TRAIL+Gamitrinib-induced apoptosis. Since Gamitrinibs augment TRAIL-induced apoptosis, the activation/cleavage of caspases-3, -7, -8, -9, BH3 interacting domain death agonist (BID), and Poly-ADP-ribose polymerase (PARP) was examined. […] The time course of activation/cleavage of caspases-3, -7, -8, -9, BID, and PARP over 24 hours was also examined following treatment of LN229 (FIG. 3C) or U251 (FIG. 3D) cells with 5 μM TPP-GA and 200 or 20 ng/ml TRAIL, respectively.

In assay [12] the test system is LN229 cells. In words: Western blotting of caspase, BID and PARP cleavage. In kind it is cell-based, human. The settings on record: 5 μM TPP-GA, 200 ng/ml TRAIL, alone or combined, 16 hours. On the procedure:
as §5

Another assay concerns cancer cells. Description: Pan-caspase inhibitor effect on TRAIL+Gamitrinib apoptosis and caspase cleavage. In kind it is cell-based. On the procedure: as §5

Where a SMILES comes first, the peptide text is derived from it. The star is where a group is joined. Cbz = O=C(OCc1ccccc1)*; CH2F = FC*

As for `Cn1cnc(N)c2ncnc1-2` [3-methyladenine], the “glioblastoma cell death induced by suboptimal concentrations of G-TPP (MTT)” value with U87 cells [1] is “enhanced glioblastoma cell death”.
As to `CO[C@H]1/C=C\C=C(/C)C(=O)NC2=CC(=O)C(NCCCCCC[P+](c3ccccc3)(c3ccccc3)c3ccccc3)=C(C[C@@H](C)C[C@H](OC)[C@H](O)[C@@H](C)/C=C(\C)[C@@H]1OC(N)=O)C2=O` [Gamitrinib-TPP, triphenylphosphonium geldanamycin], the FLIP promoter activity result in assay [2] is recorded as “rapid downregulation”. In addition, the “RelB and bcl-3 mRNA” value in [3] is reported as “rapid downregulation”. Further, in the assay with U251 cells [4], the “Annexin V positive and PI-negative tumor cells (apoptosis)” value is reported as “no significant effects”. The FLIP protein expression result in the assay with FLIP in LN229 cells is given as “rapid downregulation”. The “tumor size (bioluminescence)” value in assay [5] is “did not show any significant reduction in tumor size”. In addition, the LC3-GFP fluorescence pattern result in the assay with U251 cells [6] is on record as “exhibited a punctate fluorescence pattern”. For the same compound, in assay [7], the “NF-κB-mediated gene expression after stimulation with TNF-α” value was “complete ablation” and the “NF-κB-mediated gene expression, constitutive” value is “complete ablation”. The “LC3 lipidated form (immunoblot)” value with U87 cells [8] is recorded as “accumulated a lapidated form of the ubiquitin-like protein, light chain 3 (LC3)”. The “etoposide-mediated induction of p53 luciferase promoter activity” value in assay [9] is listed as “unaffected”. Besides, in the assay on LN229 cells [10], the “cell ultrastructure (electron microscopy)” value was “became completely filled with cytoplasmic vacuoles”. Also, in the assay on U251 cells [11], the “cleavage of caspase-3 or -7” value is “did not or only weakly induce cleavage of caspase-3 or -7”. Further, in the assay on LN229 cells [12], the “cleavage of caspase-3 or -7” value is “did not or only weakly induce cleavage of caspase-3 or -7”.
Turning to `C=CCNC1=C2C[C@@H](C)C[C@H](OC)[C@H](O)[C@@H](C)/C=C(\C)[C@H](OC(N)=O)[C@@H](OC)/C=C\C=C(/C)C(=O)NC(=CC1=O)C2=O` [Gamitrinib 17-AAG, 17-allylamino demethoxygeldanamycin, reference compound], the FLIP promoter activity result in [2] was “no effect”. The “NF-κB-mediated gene expression, constitutive” value in assay [7] is reported as “no effect”. Moreover, in the assay with LN229 cells [10], the “cell ultrastructure (electron microscopy)” value is given as “unremarkable”.
Take `CO/C1=C\C(C)=C\[C@@H](C)[C@@H](O)[C@@H](C)C/C(C)=C/C=C/[C@H](OC)[C@@H]([C@@H](C)[C@@H](O)[C@H](C)[C@@]2(O)C[C@@H](O)[C@H](C)[C@@H](C(C)C)O2)OC1=O` [bafilomycin A]: the “glioblastoma cell death induced by suboptimal concentrations of G-TPP (MTT)” value with U87 cells [1] is on record as “enhanced glioblastoma cell death”.
Consider `COC(=O)CC(NC(=O)C(C)NC(=O)C(NC(=O)OCc1ccccc1)C(C)C)C(=O)CF` (stereo not drawn) [zVAD-fmk, benzyloxycarbonyl-Val-Ala-Asp(OMe)-fluoromethyl-ketone] (Cbz-Val-Ala-Asp(OMe)-CH2F; configuration not given here), for which, in the assay with cancer cells (Western blotting), the “effect on cleavage of caspases induced by the combination of TRAIL and TPP-GA” value was “abolished cleavage of caspases”. The “effect on TRAIL+Gamitrinib mediated apoptosis” value in the assay with cancer cells (pan-caspase inhibitor added to the combination) is “significantly attenuated”.
For the compound “TRAIL: Recombinant TRAIL obtained from Peprotech; death receptor agonist”, the “Annexin V positive and PI-negative tumor cells (apoptosis)” value with U251 cells [4] is “no significant effects”. Besides, in assay [5], the “tumor size (bioluminescence)” value is “did not show any significant reduction in tumor size”. The “cleavage of caspase-3 or -7” value with U251 cells [11] and with LN229 cells [12] was “did not or only weakly induce cleavage of caspase-3 or -7” throughout.

The record behind these values is patent US20110268722A1, “COMBINATION THERAPIES WITH MITOCHONDRIAL-TARGETED ANTI-TUMOR AGENTS” (priority 2010, published 2011).
